Measured values from PMC3510438, “The transmembrane tyrosines Y56, Y91 and Y167 play important roles in determining the affinity and transport rate of the rabbit proton-coupled peptide transporter PepT1” (The International Journal of Biochemistry & Cell Biology, 2009).
Numbering of substitutions follows the chain as printed. Where a SMILES comes first, the peptide text is derived from it. [ ]: non-standard residue; d: D form. Sar = CNCC(=O)O

How the values were obtained:
Y56F-rPepT1 [1] = biological target: T1, Y56F-rPepT1 (Oryctolagus cuniculus, UniProt P36836, Y56F); set-up: method as in Chen et al. (2000); conditions: Y56F mutant versus wild-type; ref Chen et al. (2000); cited from earlier work
T1 construct: expressed in transfected cells; host or cells: Xenopus laevis oocytes injected with cRNA
T1 sequence (P36836 1-707 Y56F): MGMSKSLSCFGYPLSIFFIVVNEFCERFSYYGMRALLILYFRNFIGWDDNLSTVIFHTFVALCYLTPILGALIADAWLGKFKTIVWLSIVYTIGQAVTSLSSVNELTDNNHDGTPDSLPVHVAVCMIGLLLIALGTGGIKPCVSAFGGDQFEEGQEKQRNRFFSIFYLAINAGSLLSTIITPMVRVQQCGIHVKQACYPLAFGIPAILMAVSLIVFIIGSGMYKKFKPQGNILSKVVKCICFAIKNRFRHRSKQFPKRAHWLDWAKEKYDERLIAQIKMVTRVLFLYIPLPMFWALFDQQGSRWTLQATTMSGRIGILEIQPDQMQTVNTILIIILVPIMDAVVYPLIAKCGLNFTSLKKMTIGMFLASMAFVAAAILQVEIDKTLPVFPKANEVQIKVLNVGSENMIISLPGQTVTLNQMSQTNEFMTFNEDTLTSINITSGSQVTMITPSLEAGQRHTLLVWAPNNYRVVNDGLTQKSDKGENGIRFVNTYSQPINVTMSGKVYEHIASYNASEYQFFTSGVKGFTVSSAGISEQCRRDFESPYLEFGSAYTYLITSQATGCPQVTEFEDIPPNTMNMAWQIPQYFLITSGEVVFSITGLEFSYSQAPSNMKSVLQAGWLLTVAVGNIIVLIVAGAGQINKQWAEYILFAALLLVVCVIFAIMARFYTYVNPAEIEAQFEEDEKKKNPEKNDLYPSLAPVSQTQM

Y56A mutation of PepT1 = tested on: Y56A mutation of PepT1; set-up: method as in Chen et al. (2000); conditions: ref Chen et al. (2000); cited from earlier work
[2] = tested on: hPepT1 with mutations of Y167; set-up: method as in Yeung et al., 1998; conditions: transfected HEK293 cells; ref Yeung et al., 1998; cited from earlier work
Y56F-rPepT1 [3] = biological target: T1, Y56F-rPepT1; experiment: Competition of [3H]-D-Phe-L-Gln uptake into Xenopus oocytes, Ki; type: cell-based, rabbit; conditions: pHout 5.5, n = 4; for Ki: inhibition of 0.4 μM [3H]-D-Phe-L-Gln uptake
Experimental: rPepT1 constructs were linearised with XbaI (New England Biolabs, UK) and cRNA generated by in vitro transcription (T7 mMessage mMachine, Ambion, Cambridgeshire, UK).
As a control non-injected oocytes were also incubated in uptake medium with D-Phe-L-Gln as above.

wild-type rPepT1 = biological target: T2, wild-type rPepT1 (Oryctolagus cuniculus, UniProt P36836); experiment: Competition of [3H]-D-Phe-L-Gln uptake into Xenopus oocytes, Ki by method of Deves and Boyd; type: cell-based, rabbit; conditions: pHout 5.5; inhibition of 0.4 μM [3H]-D-Phe-L-Gln uptake; n = 4
T2 construct: expressed in transfected cells; host or cells: Xenopus laevis oocytes injected with cRNA
T2 sequence (P36836 1-707): T1 sequence (P36836 1-707 Y56F) with F56Y
Experimental: rPepT1 constructs were linearised with XbaI (New England Biolabs, UK) and cRNA generated by in vitro transcription (T7 mMessage mMachine, Ambion, Cambridgeshire, UK). Xenopus laevis oocytes were obtained under MS222 anaesthesia (0.2%, w/v) in accordance with the UK Animals (Scientific Procedures) Act, 1986, and maintained at 18 °C in modified Barth's medium (88 mM NaCl, 1 mM KCl, 0.82 mM MgSO4, 2.4 mM NaHCO3, 0.42 mM CaCl2, 10 mM Hepes, 5 mM sodium pyruvate, 50 μg ml^−1 gentamicin (Fluka, Poole, UK), adjusted to pH 7.6 with 1 M NaOH). Transport measurements were performed at least 72 h after micro-injection of oocytes with 27nl cRNA (1 μg/μl), with medium changed daily.
Uptake of [^3H]-D-Phe-L-Gln (17.4 Ci/mmole, custom synthesised, Cambridge Research Biochemicals, Stockton-on-Tees, UK) was performed as previously described ([Meredith, 2004]). Briefly, 5 oocytes were incubated in 100 μl of uptake medium (95 mM NaCl, 2 mM KCl, 1 mM CaCl2, 0.42 mM MgCl2, 10 mM Tris/Hepes pH 7.4 or Tris/Mes pH 5.5) with tracer (0.4 μM) [^3H]-D-Phe-L-Gln. After incubation, the oocytes were washed sequentially five times in 1 ml of ice-cold 120 mM NaCl solution, lysed individually with 100 μl 2% (w/v) SDS and liquid scintillation counted. As a control non-injected oocytes were also incubated in uptake medium with D-Phe-L-Gln as above.
The affinity of wild-type and mutant rPepT1 transporters were assessed by competition studies with 0.4 μM [^3H]-D-Phe-L-Gln and Gly-L-Gln present in the uptake medium in concentrations from 0 to 2 mM using the protocol above, and the Ki calculated using the method of [Deves and Boyd (1989)].

SMILES	reduction of transport (Y56F-rPepT1 [1])	transport (Y56A mutation of PepT1)	uptake [2]	Ki (Y56F-rPepT1 [3])	fold change in affinity (Ki), wild-type rPepT1 versus Y56F-rPepT1 (Y56F-rPepT1 [3])	Ki (wild-type rPepT1)
CC(C)C[C@H](NC(=O)CN)C(=O)O [Gly-L-Leu]	approximately 85%	lost completely	–	–	–	–
CN(CC(=O)O)C(=O)CN [Gly-Sar] (H-Gly-[Sar]-OH)	–	–	no measurable uptake	–	–	–
NC(=O)[C@H](Cc1ccc(O)cc1)NC(=O)[C@@H](N)Cc1ccccc1 [Phe-Tyr-NH2] (H-Phe-Tyr-NH2)	–	–	–	72.9 ± 20.5 µM	64.4 ± 26.0 fold	6600 ± 1620 µM
NC(Cc1ccccc1)C(=O)NC(Cc1ccc(O)cc1)C(=O)O (stereo not drawn) [Phe-Tyr] (H-Phe-Tyr-OH; configuration not given here)	–	–	–	0.86 ± 0.26 µM	336.4 ± 100.6 fold	200 ± 30 µM
